# Laboratory results published in patent US9517221B2, “(2R)-2-propyloctanoic acid for functional brain disease” (ONO PHARMACEUTICAL CO., LTD., priority 2006, dated 2016).
# What was measured:
# Assay type in all cases: in vivo, rat
# [1] = system: olfactory bulbectomized rats; experiment: Hyperemotional reactivity (hyperemotional score) of olfactory bulbectomized rats; set-up: key to Hyperemotional score (mean ± S. E.), One day administration, Before administration / Hyperemotional score (mean ± S. E.), One day administration, After administration / Hyperemotional score (mean ± S. E.), Seven days administration, Before administration / Hyperemotional score (mean ± S. E.), Seven days administration, After administration: irritability score per Gomita et al. (1983) criteria; settings: for Hyperemotional score (mean ± S. E.), Seven days administration, After administration: 1 hour to 1 hour 10 minutes after 7 days administration; for Hyperemotional score (mean ± S. E.), Seven days administration, Before administration: before administration of the 7 days administration; for Hyperemotional score (mean ± S. E.), One day administration, After administration: 1 hour to 1 hour 10 minutes after 1 day administration; for Hyperemotional score (mean ± S. E.), One day administration, Before administration: baseline before grouping, 12 animals
# Experimental: SPF rats (Crlj: WI) were used in the test. The animal for olfactory bulbectomy was anesthetized with pentobarbital sodium (Nembutal R Injection, Dainippon Pharmaceutical, dose: 1 mL/kg (intraperitoneal administration)), and the head was fixed using a brain stereotaxic apparatus (ASI Instruments, Inc., NARISHIGE). After incising the head skin, holes are opened at right and left olfactory bulb regions of the skull using a dental drill (manufactured by MINITOR), and the right and left olfactory bulbs were removed by sucking them using an aspirator connected to a tip-removed oral sonde, and the head skin was stitched thereafter. In this connection, in the case of the animals for sham-operation, anesthesia, brain fixation and head skin incision were carried out in the same manner as in the animals for olfactory bulbectomy, holes are opened at right and left olfactory bulb regions of the skull and the head skin was stitched without carrying out suction removal of the olfactory bulbs. The rats after olfactory bulbectomy were put into a series of five stainless steel cages, each of which was partitioned into two parts with an acrylic board for individual rearing space, and individually reared under a dark condition. The rats were subjected to the following tests of (2) and (3).
# • (a) Sham-operation group (12 animals); • (b) Vehicle control group (12 animals); • (c) 3 mg/kg administration group (12 animals) of (2R)-2-propyloctanoic acid; • (d) 10 mg/kg administration group (12 animals) of (2R)-2-propyloctanoic acid; • (e) 10 mg/kg administration group (12 animals) of Milnacipran hydrochloride. [Drug Administration]
# As shown below, drug solution or vehicle was administered once a day for 8 days, a total of 8 times, at a respective liquid dose of 5 mL/kg. • (a) Sham-operation group: vehicle (0.1% by volume Tween 80) aqueous solution; • (b) Vehicle control group: vehicle (0.1% by volume Tween 80) aqueous solution; • (c) 3 mg/kg administration group of (2R)-2-propyloctanoic acid: a drug solution in which (2R)-2-propyloctanoic acid was prepared to be 0.6 mg/mL with the vehicle; • (d) 10 mg/kg administration group of (2R)-2-propyloctanoic acid: a drug solution in which (2R)-2-propyloctanoic acid was prepared to be 2.0 mg/mL with the vehicle; • (e) 10 mg/kg administration group of milnacipran hydrochloride: a drug solution in which Milnacipran hydrochloride was prepared to be 2.3 mg/mL with the vehicle (Milnacipran itself is included in 2.0 mg/mL). (2) Examination of the Activity for Hyperemotional Reactivity <Evaluation Method>
# Evaluation of the hyperemotional reactivity was carried out (1) before the grouping, (2) from 1 hour to 1 hour and 10 minutes after administration of the 1 day drug administration, (3) before administration of the 7 days administration and (4) from 1 hour to 1 hour and 10 minutes after the administration (a total of 4 times), by scoring the degree of irritability once a rat in accordance with the following evaluation criteria of hyperemotional reactivity (hyperemotional score: prepared based on the method of Gomita et al. (Folia Pharmacologica Japonica, 82, 267, 1983). Additionally, all of the conditions of the evaluation were shot and recorded using a video camera (SSC-DC430, SONY) and handled as reference data.
# Wistar male rats = experiment: Confirmation test of anti-stress activity (Test Example 2); settings: oral, 30 minutes before stress loading; counted 1 hour thereafter; present tense
# [2] = system: olfactory bulbectomized rats; experiment: Influence upon anxiolytic behavior on an elevated plus maze in olfactory bulbectomized rats (Test Example 4-3); settings: once a day for 8 days; test 2 hours after administration; present tense
# Description: Wistar male rats are used in the test. By fixing the head of each rat under pentobarbital sodium anesthesia to a brain stereotaxic apparatus, the head skin is incised and then holes are opened at right and left olfactory bulb regions using a dental drill to suck and remove the right and left olfactory bulbs using an aspirator. The head skin is stitched thereafter. In this connection, the suction and removal of olfactory bulbs are not carried out in the sham-operation group, and the head skin is stitched after opening holes at right and left olfactory bulb regions. […]
# An elevated plus maze apparatus consisting of a open arm without a wall and a closed arm having a wall is used in the test. […] The anxiolytic behavior is analyzed from the pictures of a video camera by a video picture behavior analysis device.
# The vehicle and test drug are repeatedly administered once a day for 8 days. […] After 2 hours of the administration, the animal is softly put on the platform toward one of the open arms and measured for 5 minutes. […] The items (1) to (6) shown below are measured using the video picture behavior analysis device, and (7) and (8) are counted after completion of the measurement. […]
compound,measurement,setting,value
CCCCCC[C@@H](CCC)C(=O)O [(2R)-2-propyloctanoic acid],Development of hyperemotionality versus vehicle control group,"[1]; 1st day and 7th day of the administration, result in words",inhibited development of hyperemotionality
same,"Hyperemotional score (mean ± S. E.), Seven days administration, After administration",[1]; dose 3 mg/kg once a day,5.9 ± 1.5
same,"Hyperemotional score (mean ± S. E.), Seven days administration, Before administration",[1]; dose 3 mg/kg once a day,6.3 ± 1.0
same,"Hyperemotional score (mean ± S. E.), One day administration, After administration",[1]; dose 3 mg/kg,8.8 ± 1.4
same,"Hyperemotional score (mean ± S. E.), One day administration, Before administration",[1]; dose 3 mg/kg,20.0 ± 0.0
same,"Hyperemotional score (mean ± S. E.), Seven days administration, After administration",[1]; dose 10 mg/kg once a day,4.8 ± 0.8
same,"Hyperemotional score (mean ± S. E.), Seven days administration, Before administration",[1]; dose 10 mg/kg once a day,6.7 ± 1.4
same,"Hyperemotional score (mean ± S. E.), One day administration, After administration",[1]; dose 10 mg/kg,7.4 ± 0.9
same,"Hyperemotional score (mean ± S. E.), One day administration, Before administration",[1]; dose 10 mg/kg,20.0 ± 0.0
same,Number of defecations versus vehicle treating group,Wistar male rats,significantly suppress the number of defecations
same,Anxiolytic behavior versus vehicle treating group,[2],suppresses the anxiolytic behavior
